# Measured values taken from ChEMBL document CHEMBL1201862, “PubChem BioAssay data set” (2004).
# Activity calls are given as the source filed them.
# Columns and labels:
# Cytochrome P450 3A4 = Cytochrome P450 3A4 (Homo sapiens, UniProt P08684);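 note: CYP3A4 tested as one member of a cytochrome P450 panel screen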
# Cytochrome P450 2C19 = Cytochrome P450 2C19 (Homo sapiens, UniProt P33261); test: Cytochrome panel assay with activity outcomes. Panel member name: p450-cyp2c19 Compounds with AC50 equal or less than 10 uM are considered active; format: functional; settings: read-out: AC50
# Cytochrome P450 2C9 = Cytochrome P450 2C9 (Homo sapiens, UniProt P11712)
# [1] = fluconazole-exposed Candida albicans growth modulators – fluorescence, retest, confirmation (AID 2467); format: functional, cell-based
# [2] = NIH-3T3 fibroblast cytotoxicity, dose response, cytotoxicity control, cell-based, fluorescence, Alamar Blue, secondary assay (AID 2327); format: functional;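 note: NIH-3T3 mouse fibroblasts cultured with fluconazole at 8 µg/mL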
# [3] = target: T1, Heat shock factor protein 1 (Mus musculus, UniProt P38532); test: enhancement of HSF1-driven luciferase signal – cell-based, NIH3T3, luminescence, dose retest, confirmation (AID 435004); format: functional;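 note: stress induced by proteasome inhibitor MG132 added 30 min after compound; luciferase reporter driven by HSF1 response element in NIH3T3 cells; actives raise luminescence as potentiators of the MG132 stress response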
# T1 sequence (P38532 whole entry): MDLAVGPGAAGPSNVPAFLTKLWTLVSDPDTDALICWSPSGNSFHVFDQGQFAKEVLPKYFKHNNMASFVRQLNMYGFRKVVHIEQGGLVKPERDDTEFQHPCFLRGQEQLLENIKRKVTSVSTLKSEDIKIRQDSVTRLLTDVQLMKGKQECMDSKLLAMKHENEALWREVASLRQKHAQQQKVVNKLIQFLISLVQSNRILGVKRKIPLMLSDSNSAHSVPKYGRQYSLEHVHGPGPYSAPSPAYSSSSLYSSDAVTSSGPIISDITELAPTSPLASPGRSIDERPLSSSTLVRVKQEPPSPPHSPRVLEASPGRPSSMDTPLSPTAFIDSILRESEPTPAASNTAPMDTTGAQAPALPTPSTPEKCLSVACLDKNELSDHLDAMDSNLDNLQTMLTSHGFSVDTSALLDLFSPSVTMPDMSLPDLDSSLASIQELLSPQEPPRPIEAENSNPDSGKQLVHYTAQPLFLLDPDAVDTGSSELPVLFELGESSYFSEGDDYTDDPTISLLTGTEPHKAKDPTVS
# INS1 = test: INS-1E survival protection against cytokine death – cell-based, luminescence, retest, dose response (AID 449756); format: functional; settings: Rattus norvegicus;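 note: cell death triggered by IL-1 beta plus TNF-alpha plus IFN-gamma mixture; protective hits raise ATP signal compared with cytokine alone wells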
# Cytochrome P450 2D6 = Cytochrome P450 2D6 (Homo sapiens, UniProt P10635);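 note: CYP2D6 member of a cytochrome P450 panel assay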
# [4] = target: T2, Replicative DNA helicase DnaB (Mycobacterium tuberculosis, UniProt P9WMR3); test: DnaB intein splicing inhibitors, dose response, biochemical, cell-free fluorescence (AID 449749); format: functional
# T2 sequence (P9WMR3 whole entry): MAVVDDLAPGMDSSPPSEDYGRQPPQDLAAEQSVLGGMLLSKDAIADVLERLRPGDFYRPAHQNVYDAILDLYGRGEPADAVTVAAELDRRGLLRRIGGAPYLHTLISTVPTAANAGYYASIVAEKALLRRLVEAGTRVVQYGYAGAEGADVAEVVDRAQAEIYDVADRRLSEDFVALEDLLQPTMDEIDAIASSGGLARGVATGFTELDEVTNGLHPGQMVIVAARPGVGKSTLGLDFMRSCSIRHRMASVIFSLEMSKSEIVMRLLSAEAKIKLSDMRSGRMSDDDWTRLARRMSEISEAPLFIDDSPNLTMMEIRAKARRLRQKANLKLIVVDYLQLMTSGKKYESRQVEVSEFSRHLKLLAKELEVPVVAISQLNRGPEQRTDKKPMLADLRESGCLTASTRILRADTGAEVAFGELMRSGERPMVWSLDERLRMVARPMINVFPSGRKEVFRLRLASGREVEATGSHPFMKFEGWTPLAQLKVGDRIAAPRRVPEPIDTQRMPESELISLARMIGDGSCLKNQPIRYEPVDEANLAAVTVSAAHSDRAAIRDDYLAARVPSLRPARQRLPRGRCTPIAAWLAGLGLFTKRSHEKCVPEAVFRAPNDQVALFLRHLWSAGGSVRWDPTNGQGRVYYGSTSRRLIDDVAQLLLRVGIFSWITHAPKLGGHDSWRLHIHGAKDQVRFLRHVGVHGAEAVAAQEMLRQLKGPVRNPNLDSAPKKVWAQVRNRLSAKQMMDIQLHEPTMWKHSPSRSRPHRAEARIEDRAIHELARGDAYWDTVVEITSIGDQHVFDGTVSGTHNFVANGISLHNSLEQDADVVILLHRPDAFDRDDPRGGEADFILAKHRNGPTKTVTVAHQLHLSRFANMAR
# Protein RecA = target: T3, Protein RecA (Mycobacterium tuberculosis, UniProt P9WHJ3); test: Fluorescence Cell-Free Homogeneous Dose Retest to Identify Inhibitors of RecA-Intein Splicing Activity. [Related pubchem assays (depositor defined):AID2097, AID2223, AID489010, AID492950]; format: functional
# T3 sequence (P9WHJ3 whole entry): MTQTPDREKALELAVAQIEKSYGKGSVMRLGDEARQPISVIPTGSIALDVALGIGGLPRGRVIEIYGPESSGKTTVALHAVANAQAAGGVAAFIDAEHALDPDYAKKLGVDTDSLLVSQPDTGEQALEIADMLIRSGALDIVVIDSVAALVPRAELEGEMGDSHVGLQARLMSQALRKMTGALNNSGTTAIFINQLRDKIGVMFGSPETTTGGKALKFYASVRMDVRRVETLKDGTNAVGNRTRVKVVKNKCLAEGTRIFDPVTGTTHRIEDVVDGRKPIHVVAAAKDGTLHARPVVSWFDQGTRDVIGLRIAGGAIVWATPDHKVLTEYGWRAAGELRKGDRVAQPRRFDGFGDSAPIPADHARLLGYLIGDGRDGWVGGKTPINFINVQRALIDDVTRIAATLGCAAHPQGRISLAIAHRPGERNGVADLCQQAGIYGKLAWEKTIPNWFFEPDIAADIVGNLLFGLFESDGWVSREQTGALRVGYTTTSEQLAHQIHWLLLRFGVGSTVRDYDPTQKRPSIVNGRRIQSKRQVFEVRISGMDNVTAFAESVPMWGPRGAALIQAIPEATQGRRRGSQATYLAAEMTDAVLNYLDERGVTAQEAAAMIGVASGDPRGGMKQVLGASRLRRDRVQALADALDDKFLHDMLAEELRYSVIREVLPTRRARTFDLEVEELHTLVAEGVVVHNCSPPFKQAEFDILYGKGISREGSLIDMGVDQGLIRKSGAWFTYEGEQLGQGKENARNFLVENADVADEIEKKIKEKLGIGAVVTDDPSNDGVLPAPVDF
# [5] = NIH3T3 cell viability loss – ATP luminescence, mouse fibroblasts, counter-screen, dose response (AID 2010); format: functional, cell-based;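 note: cells exposed to compound for about 90 hours before reading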
# [6] = Trypanosoma cruzi growth suppression in host cells – NIH3T3 host cells, beta-gal luminescence, confirmation (AID 2044); format: functional, cell-based;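 note: intracellular parasites grown in NIH/3T3 mouse fibroblasts as host cells; luminescent beta-galactosidase reporter signal from transgenic T. cruzi replicating inside host cells; inhibitors lower the luminescence signal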
# Cytochrome P450 2C19, sequence (P33261 whole entry): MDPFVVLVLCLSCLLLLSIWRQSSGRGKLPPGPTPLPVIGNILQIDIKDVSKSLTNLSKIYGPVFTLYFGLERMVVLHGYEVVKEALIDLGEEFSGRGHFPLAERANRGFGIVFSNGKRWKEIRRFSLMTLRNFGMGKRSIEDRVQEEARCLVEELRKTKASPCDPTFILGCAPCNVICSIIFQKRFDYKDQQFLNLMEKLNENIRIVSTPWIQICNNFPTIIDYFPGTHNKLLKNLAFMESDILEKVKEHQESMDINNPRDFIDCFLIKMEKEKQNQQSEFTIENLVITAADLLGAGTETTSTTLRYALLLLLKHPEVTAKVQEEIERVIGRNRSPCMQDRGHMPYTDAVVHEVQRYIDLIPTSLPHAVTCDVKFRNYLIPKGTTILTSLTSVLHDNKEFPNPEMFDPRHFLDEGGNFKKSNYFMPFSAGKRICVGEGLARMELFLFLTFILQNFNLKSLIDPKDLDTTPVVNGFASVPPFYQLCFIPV
# Cytochrome P450 2C9, sequence (P11712 whole entry): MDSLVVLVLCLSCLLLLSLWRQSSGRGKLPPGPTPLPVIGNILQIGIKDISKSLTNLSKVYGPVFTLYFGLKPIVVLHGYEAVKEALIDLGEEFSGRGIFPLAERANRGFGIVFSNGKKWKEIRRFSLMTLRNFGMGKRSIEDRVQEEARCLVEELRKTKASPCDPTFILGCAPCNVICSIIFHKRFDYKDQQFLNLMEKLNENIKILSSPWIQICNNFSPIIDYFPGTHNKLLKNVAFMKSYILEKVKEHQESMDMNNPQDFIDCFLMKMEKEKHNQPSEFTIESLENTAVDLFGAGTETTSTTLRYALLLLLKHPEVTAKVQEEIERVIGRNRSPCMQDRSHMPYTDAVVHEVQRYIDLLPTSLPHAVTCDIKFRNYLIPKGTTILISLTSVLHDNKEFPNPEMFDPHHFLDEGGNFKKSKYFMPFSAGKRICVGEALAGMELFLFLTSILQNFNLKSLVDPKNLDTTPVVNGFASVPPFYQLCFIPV
# Cytochrome P450 2D6, sequence (P10635 whole entry): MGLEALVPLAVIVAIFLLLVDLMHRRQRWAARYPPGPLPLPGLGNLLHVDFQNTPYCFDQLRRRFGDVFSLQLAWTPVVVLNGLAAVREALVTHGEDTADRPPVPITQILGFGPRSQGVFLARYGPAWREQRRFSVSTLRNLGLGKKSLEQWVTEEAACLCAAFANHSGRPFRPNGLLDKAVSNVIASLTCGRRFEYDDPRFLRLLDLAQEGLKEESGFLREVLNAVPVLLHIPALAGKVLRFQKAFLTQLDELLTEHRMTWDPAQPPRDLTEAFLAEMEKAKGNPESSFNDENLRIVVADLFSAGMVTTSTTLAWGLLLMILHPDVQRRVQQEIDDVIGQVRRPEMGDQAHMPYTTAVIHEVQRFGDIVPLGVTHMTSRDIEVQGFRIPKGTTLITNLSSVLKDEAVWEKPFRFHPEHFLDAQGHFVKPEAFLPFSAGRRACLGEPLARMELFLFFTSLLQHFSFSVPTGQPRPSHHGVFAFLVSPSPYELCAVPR
# Cytochrome P450 3A4, sequence (P08684 whole entry): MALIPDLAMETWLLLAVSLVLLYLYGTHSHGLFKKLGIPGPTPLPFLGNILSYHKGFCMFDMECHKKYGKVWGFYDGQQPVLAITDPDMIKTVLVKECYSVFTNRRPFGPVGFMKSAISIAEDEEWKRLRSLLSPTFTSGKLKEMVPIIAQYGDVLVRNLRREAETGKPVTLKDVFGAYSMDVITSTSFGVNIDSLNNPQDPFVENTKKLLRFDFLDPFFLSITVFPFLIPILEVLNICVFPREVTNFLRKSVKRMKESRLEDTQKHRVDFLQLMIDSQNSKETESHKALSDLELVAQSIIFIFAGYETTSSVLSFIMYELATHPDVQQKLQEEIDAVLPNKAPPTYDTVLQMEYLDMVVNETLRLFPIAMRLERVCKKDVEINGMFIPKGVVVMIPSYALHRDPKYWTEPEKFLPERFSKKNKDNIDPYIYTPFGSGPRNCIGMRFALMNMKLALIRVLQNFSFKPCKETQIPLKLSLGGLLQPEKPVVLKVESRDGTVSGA
compound,measurement,setting,value
CNc1ncc(C(=O)c2ccccc2)s1,AC50,Cytochrome P450 3A4,28.2 µM (inconclusive)
same,AC50,Cytochrome P450 2C19,2.24 µM (inconclusive)
same,AC50,Cytochrome P450 2C9,7.94 µM (inconclusive)
NC(=O)CC12CC3CC(C1)CC(CC(N)=O)(C3)C2,EC50,[1],> 38 µM (not active)
same,EC50,[2],> 160 µM (inactive)
O=C(c1cc(Cl)c(=O)n(Cc2ccc(Cl)cc2)c1)N1CCOCC1,AC50,Cytochrome P450 3A4,28.2 µM (inconclusive)
Cc1ccc(O)c(-c2cc3ccccc3[nH]2)c1,EC50,[1],> 38 µM (not active)
same,EC50,[2],> 160 µM (inactive)
Cc1cc(O)c2n(Cc3ccccc3Cl)nc[n+]2n1,EC50,[3],> 260 µM (inactive)
CC(=O)NC(c1ccco1)c1cc(F)c2cccnc2c1O (centres undefined),AC50,INS1,2.71 µM (active)
Cc1noc(C)c1CS(=O)(=O)c1ccc(Br)cc1,AC50,Cytochrome P450 2C9,31.6 µM (inconclusive)
O=C(COc1ccccc1)Nc1cc(C(F)(F)F)ccc1N1CCCC1,AC50,Cytochrome P450 2D6,17.8 µM (inconclusive)
CCC(C)c1ccc(Nc2ncccc2C#N)cc1 (centres undefined),AC50,Cytochrome P450 2D6,28.2 µM (inconclusive)
CS/C(=C\[N+](=O)[O-])Nc1ccc(Cl)cc1,EC50,[1],> 38 µM (not active)
same,AC50,[4],23.2 µM (active)
same,EC50,[2],> 150 µM (inconclusive)
same,EC50,Protein RecA,12.7 µM (active)
CCNC(=O)NC(=O)CSc1nc2ccccc2n1CC(C)C,AC50,Cytochrome P450 2D6,14.1 µM (inconclusive)
same,AC50,Cytochrome P450 2C9,20 µM (inconclusive)
c1csc(CN2CCCC3(CCNCC3)C2)n1,AC50,Cytochrome P450 2C9,31.6 µM (inconclusive)
Cc1nc2c(n1C1CCCCC1)C(=O)c1ccccc1C2=O,AC50,Cytochrome P450 2D6,22.4 µM (inconclusive)
NCCc1c[nH]c2ccc(OC(=O)C(=O)O)cc12,AC50,Cytochrome P450 2C19,1.58 µM (inconclusive)
same,AC50,Cytochrome P450 2C9,3.98 µM (inconclusive)
c1ccc2c(CC3NCCN3)cccc2c1,AC50,Cytochrome P450 2D6,3.98 µM (inconclusive)
COc1cc2c(cc1OC)C(C(=O)Nc1cccc(C)n1)C(c1cccnc1)N(C)C2=O (centres undefined),AC50,Cytochrome P450 3A4,15.8 µM (inconclusive)
same,AC50,Cytochrome P450 2C9,0.00562 µM (inconclusive)
Oc1ccc2ccccc2c1/C=N\Cc1c(O)ccc2ccccc12,AC50,Cytochrome P450 2D6,3.98 µM (inconclusive)
COCCNC(=O)c1ccc2c(c1)ncn2-c1ccc(F)c(F)c1,AC50,Cytochrome P450 2C19,28.2 µM (inconclusive)
same,AC50,Cytochrome P450 2C9,17.8 µM (inconclusive)
CCc1nc(SCC(=O)c2ccc(Cl)s2)c2oc3ccccc3c2n1,EC50,[3],43.5 µM (active)
CCOC(=O)c1sc(C)c(C(=O)NCC(C)(C)CN(C)C)c1N,AC50,Cytochrome P450 2C9,39.8 µM (inconclusive)
Cc1nn(C(CC(=O)O)C(=O)O)c(C)c1Br (centres undefined),EC50,[3],> 260 µM (inactive)
COc1ncc2nc(CCc3ccccc3)c(=O)n(-c3ccccc3)c2n1,AC50,Cytochrome P450 2C9,25.1 µM (inconclusive)
COC(=O)[C@@H]1C[C@H]1[C@@H](NC(=O)c1cc(C)on1)c1ccccc1,AC50,Cytochrome P450 3A4,31.6 µM (inconclusive)
same,AC50,Cytochrome P450 2C9,39.8 µM (inconclusive)
CCCCCCC1CC(C)(/C(C)=N/NC(N)=O)OC1=O (centres undefined),AC50,Cytochrome P450 3A4,17.8 µM (inconclusive)
CCn1c(C)c(/C=N/Nc2nc3ccccc3s2)c2ccccc21,EC50,[5],> 60 µM (not active)
same,EC50,[6],2.5 µM (active)
same,AC50,Cytochrome P450 2D6,14.1 µM (inconclusive)
